Data: the supplement of paper PMC10307832

Assays:
Experiment in all cases: relative viability (nuclei count vs DMSO), 5 days (fraction); higher = more cells survive
[1] = tested on: ChaGo-K-1
How it was run: (§1)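 Nuclei were stained with Hoechst during a one-step fixation (final 0.05% Triton X-100, 1% formaldehyde, 1 ug/ml Hoechst) carried out 5 days after dosing, then counted on 4× images. The cells, lung cancer lines in 1536-well plates, had been dosed by pin tool the day after seeding with one drug alone or a fixed anchor-drug dose plus five library-drug doses (not always all listed) in √10 steps. Relative viability is the nuclei count in treated wells divided by that in vehicle wells, and each value is the median of duplicate plates.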

[2] = tested on: EMC-BAC-2
How it was run: as §1

[3] = tested on: EPLC-272H
How it was run: as §1

[4] = tested on: HOP-62
How it was run: as §1

[5] = tested on: LCLC-103H
How it was run: as §1

[6] = tested on: LCLC-97TM1
How it was run: as §1

[7] = tested on: LOU-NH91
How it was run: as §1

[8] = tested on: NCI-H1395
How it was run: as §1

[9] = tested on: NCI-H1975
How it was run: as §1

[10] = tested on: NCI-H1993
How it was run: as §1

[11] = tested on: NCI-H2085
How it was run: as §1

[12] = tested on: NCI-H2126
How it was run: as §1

[13] = tested on: NCI-H2170
How it was run: as §1

[14] = tested on: NCI-H2228
How it was run: as §1

[15] = tested on: NCI-H2342
How it was run: as §1

[16] = tested on: NCI-H2405
How it was run: as §1

[17] = tested on: NCI-H3122
How it was run: as §1

[18] = tested on: NCI-H322M
How it was run: as §1

[19] = tested on: NCI-H460
How it was run: as §1

[20] = tested on: NCI-H520
How it was run: as §1

[21] = tested on: NCI-H647
How it was run: as §1

[22] = tested on: SK-LU-1
How it was run: as §1

Structure (SMILES): C=C1C(=O)O[C@@H](CCCCCCCC)[C@@H]1C(=O)O [C-75] + Cc1nc(Nc2ncc(C(=O)Nc3c(C)cccc3Cl)s2)cc(N2CCN(CCO)CC2)n1 [Dasatinib] (partner 0.075 µM)
- relative viability ([1]; first compound 0.08 µM): 0.675
- relative viability ([1]; first compound 0.253 µM): 0.463
- relative viability ([1]; first compound 0.8 µM): 0.567
- relative viability ([1]; first compound 2.53 µM): 0.393
- relative viability ([1]; first compound 8 µM): 0.593
- relative viability ([2]; first compound 0.08 µM): 0.37
- relative viability ([2]; first compound 0.253 µM): 0.313
- relative viability ([2]; first compound 0.8 µM): 0.283
- relative viability ([2]; first compound 2.53 µM): 0.261
- relative viability ([2]; first compound 8 µM): 0.276
- relative viability ([3]; first compound 0.08 µM): 0.412
- relative viability ([3]; first compound 0.253 µM): 0.292
- relative viability ([3]; first compound 0.8 µM): 0.351
- relative viability ([3]; first compound 2.53 µM): 0.33
- relative viability ([3]; first compound 8 µM): 0.381
- relative viability ([4]; first compound 0.08 µM): 0.642
- relative viability ([4]; first compound 0.253 µM): 0.499
- relative viability ([4]; first compound 0.8 µM): 0.6
- relative viability ([4]; first compound 2.53 µM): 0.603
- relative viability ([4]; first compound 8 µM): 0.666
- relative viability ([5]; first compound 0.08 µM): 0.445
- relative viability ([5]; first compound 0.253 µM): 0.451
- relative viability ([5]; first compound 0.8 µM): 0.511
- relative viability ([5]; first compound 2.53 µM): 0.351
- relative viability ([5]; first compound 8 µM): 0.524
- relative viability ([6]; first compound 0.08 µM): 0.799
- relative viability ([6]; first compound 0.253 µM): 0.807
- relative viability ([6]; first compound 0.8 µM): 0.883
- relative viability ([6]; first compound 2.53 µM): 0.704
- relative viability ([6]; first compound 8 µM): 0.874
- relative viability ([7]; first compound 0.08 µM): 0.605
- relative viability ([7]; first compound 0.253 µM): 0.527
- relative viability ([7]; first compound 0.8 µM): 0.492
- relative viability ([7]; first compound 2.53 µM): 0.414
- relative viability ([7]; first compound 8 µM): 0.544
- relative viability ([8]; first compound 0.08 µM): 0.396
- relative viability ([8]; first compound 0.253 µM): 0.388
- relative viability ([8]; first compound 0.8 µM): 0.42
- relative viability ([8]; first compound 2.53 µM): 0.407
- relative viability ([8]; first compound 8 µM): 0.477
- relative viability ([9]; first compound 0.08 µM): 0.364
- relative viability ([9]; first compound 0.253 µM): 0.432
- relative viability ([9]; first compound 0.8 µM): 0.318
- relative viability ([9]; first compound 2.53 µM): 0.324
- relative viability ([9]; first compound 8 µM): 0.404
- relative viability ([10]; first compound 0.08 µM): 0.568
- relative viability ([10]; first compound 0.253 µM): 0.861
- relative viability ([10]; first compound 0.8 µM): 0.475
- relative viability ([10]; first compound 2.53 µM): 0.553
- relative viability ([10]; first compound 8 µM): 0.602
- relative viability ([11]; first compound 0.08 µM): 0.264
- relative viability ([11]; first compound 0.253 µM): 0.309
- relative viability ([11]; first compound 0.8 µM): 0.284
- relative viability ([11]; first compound 2.53 µM): 0.266
- relative viability ([11]; first compound 8 µM): 0.259
- relative viability ([12]; first compound 0.08 µM): 0.665
- relative viability ([12]; first compound 0.253 µM): 0.657
- relative viability ([12]; first compound 0.8 µM): 0.576
- relative viability ([12]; first compound 2.53 µM): 0.448
- relative viability ([12]; first compound 8 µM): 0.586
- relative viability ([13]; first compound 0.08 µM): 0.692
- relative viability ([13]; first compound 0.253 µM): 0.552
- relative viability ([13]; first compound 0.8 µM): 0.552
- relative viability ([13]; first compound 2.53 µM): 0.476
- relative viability ([13]; first compound 8 µM): 0.522
- relative viability ([14]; first compound 0.08 µM): 0.613
- relative viability ([14]; first compound 0.253 µM): 0.627
- relative viability ([14]; first compound 0.8 µM): 0.524
- relative viability ([14]; first compound 2.53 µM): 0.394
- relative viability ([14]; first compound 8 µM): 0.396
- relative viability ([15]; first compound 0.08 µM): 0.3
- relative viability ([15]; first compound 0.253 µM): 0.314
- relative viability ([15]; first compound 0.8 µM): 0.301
- relative viability ([15]; first compound 2.53 µM): 0.327
- relative viability ([15]; first compound 8 µM): 0.316
- relative viability ([16]; first compound 0.08 µM): 0.196
- relative viability ([16]; first compound 0.253 µM): 0.191
- relative viability ([16]; first compound 0.8 µM): 0.188
- relative viability ([16]; first compound 2.53 µM): 0.216
- relative viability ([16]; first compound 8 µM): 0.22
- relative viability ([17]; first compound 0.08 µM): 0.832
- relative viability ([17]; first compound 0.253 µM): 0.798
- relative viability ([17]; first compound 0.8 µM): 0.583
- relative viability ([17]; first compound 2.53 µM): 0.594
- relative viability ([17]; first compound 8 µM): 0.742
- relative viability ([18]; first compound 0.08 µM): 0.241
- relative viability ([18]; first compound 0.253 µM): 0.244
- relative viability ([18]; first compound 0.8 µM): 0.272
- relative viability ([18]; first compound 2.53 µM): 0.198
- relative viability ([18]; first compound 8 µM): 0.313
- relative viability ([19]; first compound 0.08 µM): 0.592
- relative viability ([19]; first compound 0.253 µM): 0.364
- relative viability ([19]; first compound 0.8 µM): 0.415
- relative viability ([19]; first compound 2.53 µM): 0.258
- relative viability ([19]; first compound 8 µM): 0.383
- relative viability ([20]; first compound 0.08 µM): 0.188
- relative viability ([20]; first compound 0.253 µM): 0.206
- relative viability ([20]; first compound 0.8 µM): 0.206
- relative viability ([20]; first compound 2.53 µM): 0.182
- relative viability ([20]; first compound 8 µM): 0.179
- relative viability ([21]; first compound 0.08 µM): 0.227
- relative viability ([21]; first compound 0.253 µM): 0.114
- relative viability ([21]; first compound 0.8 µM): 0.172
- relative viability ([21]; first compound 2.53 µM): 0.143
- relative viability ([21]; first compound 8 µM): 0.219
- relative viability ([22]; first compound 0.08 µM): 0.168
- relative viability ([22]; first compound 0.253 µM): 0.175
- relative viability ([22]; first compound 0.8 µM): 0.166
- relative viability ([22]; first compound 2.53 µM): 0.127
- relative viability ([22]; first compound 8 µM): 0.172
